Here are results for 14 compounds from article PMC7180572, “5-Alkylamino-N-phenylpyrazine-2-carboxamides: Design, Preparation, and Antimycobacterial Evaluation” (Molecules, 2020).

Data set [1] deals with Mycobacterium smegmatis DSM 43465 (ATCC 607). Nature of the data set: Microdilution broth, modified Microplate Alamar Blue Assay, whole cell growth inhibition. It is filed as cell-based. As to conditions: Mycolicibacterium smegmatis, read-out: MIC Mycobacterium smegmatis. (In general: Broth dilution looks for growth in wells or tubes with falling amounts of substance.)
Data set [2] concerns Mycobacterium tuberculosis H37Ra ITM-M006710 (ATCC 9431). Described as above. It is filed as cell-based. The note with it: Mycobacterium tuberculosis, read-out: MIC Mtb H37Ra.
Data set [3] deals with Mycobacterium aurum DSM 43999 (ATCC 23366). The description is as above. It is filed as cell-based. As to conditions: Mycolicibacterium aurum, read-out: MIC Mycobacterium aurum.
In data set [4] the test system is M. kansasii CNCTC My 235/80 (ATCC 12478). The data set is described as follows: 96 well plate microdilution broth method with Alamar Blue. It is filed as cell-based. As to conditions: Mycobacterium kansasii, ATCC12478; Middlebrook 7H9 broth pH 6.6; read-out: MIC Mycobacterium kansasii.
Data set [5] concerns M. avium ssp. avium CNCTC My 80/72 (ATCC 15769). The data set is described as above. It is filed as cell-based. As to conditions: Mycobacterium avium, ATCC15769; Middlebrook 7H9 broth pH 6.6; read-out: MIC Mycobacterium avium.
Data set [6] is classed as physicochemical. Here is the method:
As a complementary test, final compounds were tested for in vitro activity against selected fungal and bacterial pathogens of clinical importance. The microdilution broth method was performed according to The European Committee on Antimicrobial Susceptibility Testing (EUCAST) instructions with slight modifications. The minimum inhibitory concentration was expressed in µM. Not all compounds were evaluated due to the fact of a problem with solubility which occurred for 18 samples. […] See Supplementary Materials for the list of tested strains, methodology, and full results.

The test system of another data set is HepG2 cells. The data set is described as follows: HepG2 cytotoxicity, CellTiter 96 (MTS) assay. It is filed as cell-based, human. The note with it: for IC50: Homo sapiens, HepG2, 24 h incubation, > means higher concentration not reproducible due to precipitation, read-out: HepG2 IC50.
The mark [7] stands for this setting: in vitro, Middlebrook 7H9 broth, resazurin.

Values after ≈ are worked out from the molar mass of the structure shown. Read-outs that look alike come from different tables or passages of the source.

Broadly, the MIC is the least concentration at which growth counts as inhibited. `NNC(=O)c1ccncc1` [INH, isoniazid, reference compound]: the MIC in data set [1] (setting [7]) was 7.81 to 15.6 µg/mL (≈ 56.9 to 114 µM); in data set [2] (setting [7]), 0.125 to 0.25 µg/mL (≈ 0.911 to 1.82 µM); in data set [3] (setting [7]), 3.91 to 7.81 µg/mL (≈ 28.5 to 56.9 µM); in data set [4] it was 25 µg/mL (≈ 182 µM); in data set [5], 25 µg/mL (≈ 182 µM).

In general, melting point refers to the temperature of the solid-liquid transition. Usually IC50 stands for the concentration that gives 50% inhibition. Regarding `CCCCCCCCNc1cnc(C(=O)Nc2ccc(Cl)cc2O)cn1` [Compound 6f, N-(4-chloro-2-hydroxyphenyl)-5-(octylamino)pyrazine-2-carboxamide], the melting point lay within 196.9 to 197.9 °C. The “Solubility problem in antibacterial/antifungal testing” value in data set [6] was “did not dissolve in DMSO”. Also, in data set [1] (setting [7]), the MIC was 7.81 µg/mL (≈ 20.7 µM). In addition, the MIC in data set [2] (setting [7]) is no less than 500 µg/mL. For the same compound, in data set [3] (setting [7]), the MIC was no less than 500 µg/mL. Besides, in the data set with HepG2 cells, the IC50 is greater than 50 µM.

The compound `CCCCNc1cnc(C(=O)Nc2cc(Cl)ccc2O)cn1` [Compound 7b, 5-(Butylamino)pyrazine-N-(5-chloro-2-hydroxyphenyl)-2-carboxamide] displayed a melting point of 257.9 to 262.1 °C. For the same compound, the “Solubility problem in antibacterial/antifungal testing” value in data set [6] is reported as “did not dissolve in DMSO”. In addition, in data set [1] (setting [7]), the MIC was found to be 3.91 µg/mL (≈ 12.2 µM). Besides, the MIC in data set [2] (setting [7]) is no less than 500 µg/mL. Also, the MIC in data set [3] (setting [7]) is no less than 500 µg/mL. In addition, the IC50 with HepG2 cells is greater than 25 µM.

For `CCCCCCCNc1cnc(C(=O)Nc2cc(Cl)ccc2O)cn1` [Compound 7e, N-(5-chloro-2-hydroxyphenyl)-5-(heptylamino)pyrazine-2-carboxamide], the melting point is 243.6 to 246 °C. In data set [6], the “Solubility problem in antibacterial/antifungal testing” value is “did not dissolve in DMSO”. Moreover, the MIC in data set [1] was determined as 31.2 µg/mL (≈ 86.1 µM). For the same compound, the MIC in data set [2] was no less than 500 µg/mL. The MIC in data set [3] was no less than 500 µg/mL. For the same compound, the IC50 in the data set with HepG2 cells was greater than 10 µM.

The compound `CCCCCCCCNc1cnc(C(=O)Nc2ccc(CC)cc2)cn1` [Compound 5f, N-(4-ethylphenyl)-5-(octylamino)pyrazine-2-carboxamide] registered a melting point of 131 to 132 °C. Also, the “Solubility problem in antibacterial/antifungal testing” value in data set [6] is “precipitated in both growth media”. In addition, in data set [1] (setting [7]), the MIC was no less than 250 µg/mL. The MIC in data set [2] (setting [7]) is no less than 250 µg/mL. Moreover, the MIC in data set [3] (setting [7]) was no less than 250 µg/mL. The IC50 in the data set on HepG2 cells is greater than 10 µM.

On to `CCCCCNc1cnc(C(=O)Nc2cc(Cl)ccc2O)cn1` [Compound 7c, N-(5-chloro-2-hydroxyphenyl)-5-(pentylamino)pyrazine-2-carboxamide], for which the melting point lay in the range of 250.3 to 255.1 °C. Also, the “Solubility problem in antibacterial/antifungal testing” value in data set [6] is “did not dissolve in DMSO”. For the same compound, the MIC in data set [1] (setting [7]) is no less than 500 µg/mL. Further, the MIC in data set [2] (setting [7]) was no less than 500 µg/mL. Moreover, the MIC in data set [3] (setting [7]) was no less than 500 µg/mL. The IC50 in the data set with HepG2 cells is greater than 25 µM.

For the compound `CCCCCNc1cnc(C(=O)Nc2cccc(O)c2)cn1` [Compound 2c, N-(3-hydroxyphenyl)-5-(pentylamino)pyrazine-2-carboxamide], the melting point is 224.8 to 226.1 °C. In addition, in data set [6], the “Solubility problem in antibacterial/antifungal testing” value is “precipitated in both growth media”. Besides, the MIC in data set [1] (setting [7]) is no less than 500 µg/mL. Moreover, in data set [2] (setting [7]), the MIC was no less than 500 µg/mL. The minimal inhibitory concentration (MIC) in data set [3] (setting [7]) is no less than 500 µg/mL. Besides, in the data set on HepG2 cells, the IC50 is greater than 10 µM.

`CCCCCCNc1cnc(C(=O)Nc2cc(Cl)ccc2O)cn1` [Compound 7d, N-(5-chloro-2-hydroxyphenyl)-5-(hexylamino)pyrazine-2-carboxamide] yielded a melting point of 249.3 to 251.9 °C. Also, the “Solubility problem in antibacterial/antifungal testing” value in data set [6] was “did not dissolve in DMSO”. The MIC in data set [1] (setting [7]) is no less than 500 µg/mL. Also, the MIC in data set [2] (setting [7]) was no less than 500 µg/mL. For the same compound, in data set [3] (setting [7]), the MIC was no less than 500 µg/mL. In the data set with HepG2 cells, the IC50 is greater than 25 µM.

`CCCCCCCCNc1cnc(C(=O)Nc2cc(Cl)ccc2O)cn1` [Compound 7f, N-(5-chloro-2-hydroxyphenyl)-5-(octylamino)pyrazine-2-carboxamide] registered a melting point of 239.7 to 242.4 °C. For the same compound, the “Solubility problem in antibacterial/antifungal testing” value in data set [6] is given as “did not dissolve in DMSO”. Also, the MIC in data set [1] (setting [7]) was 250 µg/mL (≈ 663 µM). The minimum inhibitory concentration (MIC) in data set [2] (setting [7]) is no less than 500 µg/mL. Moreover, in data set [3] (setting [7]), the MIC was no less than 500 µg/mL. Moreover, the IC50 in the data set on HepG2 cells was greater than 50 µM.

The compound `CCCCCNc1cnc(C(=O)Nc2ccc(CC)cc2)cn1` [Compound 5c, N-(4-ethylphenyl)-5-(pentylamino)pyrazine-2-carboxamide] returned a melting point of 136.1 to 137.1 °C. Further, the “Solubility problem in antibacterial/antifungal testing” value in data set [6] is listed as “precipitated in both growth media”. Besides, the MIC in data set [1] (setting [7]) is no less than 500 µg/mL. For the same compound, the MIC in data set [2] (setting [7]) is no less than 500 µg/mL. The minimum inhibitory concentration (MIC) in data set [3] (setting [7]) was no less than 500 µg/mL. In the data set with HepG2 cells, the IC50 is greater than 25 µM.

Compound `CCCCCCCNc1cnc(C(=O)Nc2cccc(O)c2)cn1` [Compound 2e, 5-(Heptylamino)pyrazine-N-(3-hydroxyphenyl)-2-carboxamide] returned a melting point of 222 to 223 °C. In addition, the “Solubility problem in antibacterial/antifungal testing” value in data set [6] is “precipitated in both growth media”. The MIC in data set [1] (setting [7]) came out at 250 µg/mL (≈ 761 µM). Moreover, the MIC in data set [2] (setting [7]) was no less than 500 µg/mL. Moreover, in data set [3] (setting [7]), the MIC is no less than 500 µg/mL. Besides, the IC50 in the data set on HepG2 cells is greater than 10 µM.

Take `CCCNc1cnc(C(=O)Nc2ccc(C)cc2)cn1` [Compound 4a, 5-(Propylamino)-N-(p-tolyl)pyrazine-2-carboxamide]: the melting point was in the range of 168 to 169 °C. Also, in data set [6], the “Solubility problem in antibacterial/antifungal testing” value is on record as “precipitated in both growth media”. Besides, the MIC in data set [1] (setting [7]) was 31.2 µg/mL (≈ 116 µM). The MIC in data set [2] (setting [7]) was determined as 15.6 µg/mL (≈ 57.8 µM). Also, the MIC in data set [3] (setting [7]) was no less than 500 µg/mL. For the same compound, in the data set on HepG2 cells, the IC50 is greater than 100 µM. In addition, the “SI, selectivity index” value with HepG2 cells (IC50 (HepG2)/MIC against Mtb H37Ra (in µM)) is reported as greater than 1.73.

For `CCCCCCNc1cnc(C(=O)Nc2cccc(O)c2)cn1` [Compound 2d, 5-(Hexylamino)pyrazine-N-(3-hydroxyphenyl)-2-carboxamide], the melting point was 225 to 226 °C. The “Solubility problem in antibacterial/antifungal testing” value in data set [6] is “precipitated in both growth media”. In addition, the MIC in data set [1] (setting [7]) was no less than 500 µg/mL. Besides, in data set [2] (setting [7]), the MIC was no less than 500 µg/mL. For the same compound, in data set [3] (setting [7]), the MIC was no less than 500 µg/mL. The IC50 in the data set with HepG2 cells is greater than 10 µM.

In turn, `CCCNc1cnc(C(=O)Nc2cc(Cl)ccc2O)cn1` [Compound 7a, N-(5-chloro-2-hydroxyphenyl)-5-(propylamino)pyrazine-2-carboxamide] returned a melting point of 254 to 259 °C. In addition, in data set [6], the “Solubility problem in antibacterial/antifungal testing” value is listed as “did not dissolve in DMSO”. In addition, the MIC in data set [1] (setting [7]) was less than 3.91 µg/mL. Also, in data set [2] (setting [7]), the MIC was no less than 500 µg/mL. In addition, in data set [3] (setting [7]), the MIC was 250 µg/mL (≈ 815 µM). The IC50 with HepG2 cells was greater than 25 µM.
